Measurements as given in patent publication US11034675B2, “Solid forms of Selinexor and process for their preparation” (DR. REDDY'S LABORATORIES LIMITED, priority 2016, dated 2021).

Columns and labels:
[1] = stability of amorphous form under hygroscopic conditions (higher relative humidity); format: physicochemical; conditions: higher relative humidity conditions of more than 60% RH
From the text: (§1) The present application provides a stable amorphous form of Selinexor suitable for powder handling and downstream processes. […] In an embodiment, the present application provides a stable amorphous form of Selinexor with less than 5% of crystallinity, preferably with less than 1% crystallinity and more preferably devoid of crystallinity as per X-ray diffraction analysis.

[2] = stability of amorphous form under mechanical stress (grinding, milling); format: physicochemical; conditions: mechanical stress such as grinding and milling
From the text: as §1

## O=C(/C=C\n1cnc(-c2cc(C(F)(F)F)cc(C(F)(F)F)c2)n1)NNc1cnccn1 [Amorphous form of Selinexor, (Z)-3-(3-(3,5-bis(trifluoromethyl)phenyl)-IH—I,2,4-triazol-1-yl)-N′-(pyrazin-2yl) acrylohydrazide]
[1]
  stability under hygroscopic conditions: stable
[2]
  stability under mechanical stress: highly stable
